# Assay results as given in ChEMBL document CHEMBL5727053, “Muscarinic M1 receptor positive allosteric modulators” (2019).
# Target: T1, Muscarinic acetylcholine receptor M1 (Homo sapiens, UniProt P11229)
# T1 sequence (P11229 whole entry): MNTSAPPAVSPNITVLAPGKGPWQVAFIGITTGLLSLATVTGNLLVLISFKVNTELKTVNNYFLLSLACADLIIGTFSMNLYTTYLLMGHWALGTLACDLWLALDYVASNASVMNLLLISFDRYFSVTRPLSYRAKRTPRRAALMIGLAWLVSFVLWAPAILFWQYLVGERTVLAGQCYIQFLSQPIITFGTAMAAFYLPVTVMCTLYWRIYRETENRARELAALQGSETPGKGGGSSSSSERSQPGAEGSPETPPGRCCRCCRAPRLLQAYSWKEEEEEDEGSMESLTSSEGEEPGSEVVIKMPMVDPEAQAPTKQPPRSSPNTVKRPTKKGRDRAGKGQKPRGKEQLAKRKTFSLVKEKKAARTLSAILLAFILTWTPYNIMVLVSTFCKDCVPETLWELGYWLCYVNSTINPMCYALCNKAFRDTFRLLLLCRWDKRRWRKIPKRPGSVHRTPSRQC
# Test: Determination of Allosteric Potency EC50 Values for Muscarinic M1 Receptor: A stable CHO cell line expressing recombinant human Muscarinic M1 receptor and pCRE-Luc reporter system was used for cell-based assay. The assay offers a non-radioactive based approach to determine binding of a compound to GPCRs. In this specific assay, the level of intracellular cyclic AMP which is modulated by activation or inhibition of the receptor is measured. The recombinant cells harbor luciferase reporter gene under the control of cAMP response element.The above cells were grown in 96 well clear bottom white plates in Hams F12 medium containing 10% fetal bovine serum (FBS). Prior to the addition of compounds or standard agonist, cells were serum starved overnight. Increasing concentrations of test compounds were added along with EC20 of acetylcholine in OptiMEM medium to the cells. The incubation was continued at 37° C. in CO2 incubator for 4 hours. Medium was removed and cells were washed with phosphate buffered saline. The cells were lysed and luciferase activity was measured in a Luminometer. Luminescence units were plotted against the compound concentrations using Graphpad software. EC50 values of the compounds were defined as the concentration required in stimulating the luciferase activity by 50% in presence of EC20 of acetylcholine.
smiles,measurement,value
O=C(N[C@H]1CCCC[C@@H]1O)C1=CN(Cc2ccccc2)c2cccnc2O1,EC50,1000 nM
